Tests used:
Test in all cases: Melanoma cytotoxicity assay (resazurin)
Format in all cases: cell-based
LOX IMVI = LOX IMVI melanoma cells, 24 hours with compound, resazurin; concentration not given
Method: (§1) Cytotoxicity Assay: Melanoma cells (˜4000 cells in each well) were incubated in a 96 well plates at 37° C. in 5% CO2 for 24 hours. Compounds were added in triplicates and the plate was further incubated for 24 hours. DMSO and dacarbazine were added as technical and positive controls respectively. Next day resazurin was added and the plate was further incubated for 6 hours followed by reading the plate at 544 nm (excitation) and 590 nm (emission) using BMG Labtech Fluostar Optima plate reader. IC50 values were determined by using Graphpad Prism.
(§2) On day 1, the cell line trypsinized and centrifuged to form cell pellet. The pellet was diluted in media, then counted using Countess automated cell counter. Approximately 4000 cells (198 uL) per well plated in […]. A control well of 200 uL growth media was also prepared. Wells closest to plate perimeter were filled with 200 uL PBS to prevent inner well evaporation. The 96 well plates are incubated in 37° C. incubator at 5% CO2 for 24 hours.
(§3) On day 2, compounds were added (in triplicate) along with DMSO/Dacarbazine controls (2 uL) added to bring wells to volume of 200 μL. The 96 well plates are incubated in 37° C. incubator at 5% CO2 for 24 hours.
(§4) On day 3, 40 μL of 0.15 mg/ml reszurin solution added to wells. Samples were placed in a 37° C. incubator at 5% CO2 for 6 hours. Excitation and emission for fluorescence measured at 544 nm and 590 nm using BMG Labtech Fluostar Optima plate reader
(§5) Percent viability determined by taking average of each triplicate well fluorescence and subtracting GM well reading to remove the background signal. This difference is then divided by the average of the negative control (DMSO) wells to determine percent viability.
(§6) IC50s were determined by using cereal dilution of compound to determine viability. Viabilities and concentration of cells are analyzed in Graphpad Prism by creating sigmoidal curve graph, which will determine the IC50 concentration.
(§7) We analyzed the ability of the thiazole-androstane derivatives to inhibit growth in various melanoma cell lines. The growth inhibition against melanoma cell lines of various compound is shown below in Tables 19 and 20. Inhibition results are reported as the IC50 concentration in μM of the indicated compound or as the percent viability […] of the indicated compound. NA=not available.

SK-MEL-5 = SK-MEL-5 melanoma cells, 24 hours with compound, resazurin; concentration not given
Method: as §1, §2, §3, §4, §5, §6, §7

SK-MEL-28 = SK-MEL-28 melanoma cells, 24 hours with compound, resazurin; concentration not given
Method: as §1, §2, §3, §4, §5, §6, §7

SK-MEL-25 = SK-MEL-25 melanoma cells, 24 hours with compound, resazurin; concentration not given
Method: as §1, §2, §3, §4, §5, §6, §7

Row | Structure (SMILES) | LOX-IMVI (% inhibition) (LOX IMVI) | SK-MEL-5 (% inhibition) (SK-MEL-5) | SK-MEL-28 (% inhibition) (SK-MEL-28) | SK-MEL-25 (% inhibition) (SK-MEL-25)
1 | C[C@]12CCc3nc(-c4ccccc4O)sc3C1=CC[C@@H]1[C@@H]2CC[C@]2(C)C(=O)CC[C@@H]12 [II.11] | 35% |  |  | 
2 | C[C@]12CCc3nc(-c4cccc(O)c4)sc3C1=CC[C@@H]1[C@@H]2CC[C@]2(C)C(=O)CC[C@@H]12 [II.17, (1S,2R,13R,14S,18S)-7-(3-hydroxy)-2,18-dimethyl-8-thia-6-azapentacyclo[11.7.0.02,10.05,9.014,18]icosa-5(9),7,10-trien-17-one] | 17% |  |  | 
3 | C[C@]12CCc3sc(Nc4ncccn4)nc3C1=CC[C@@H]1[C@@H]2CC[C@]2(C)C(=O)CC[C@@H]12 [IIa.22, (1S,2R,13R,14S,18S)-2,18-dimethyl-7-(pyrimidin-2-ylamino)-6-thia-8-azapentacyclo[11.7.0.02,10.05,9.014,18]icosa-5(9),7,10-trien-17-one] |  | 15% | 4% | 3%
4 | C[C@]12CCc3sc(Nc4cccc(C(=O)O)c4)nc3C1=CC[C@@H]1[C@@H]2CC[C@]2(C)C(=O)CC[C@@H]12 [IIa.34, 3-[[(1S,2R,13R,14S,18S)-2,18-dimethyl-17-oxo-6-thia-8-azapentacyclo[11.7.0.02,10.05,9.014,18]icosa-5(9),7,10-trien-7-yl]amino]benzoic acid] |  | 80% | 73% | 59%
5 | C[C@]12CCc3sc(Nc4ccccn4)nc3C1=CC[C@@H]1[C@@H]2CC[C@]2(C)C(=O)CC[C@@H]12 [IIa.21, (1S,2R,13R,14S,18S)-2,18-dimethyl-7-(2-pyridylamino)-6-thia-8-azapentacyclo[11.7.0.02,10.05,9.014,18]icosa-5(9),7,10-trien-17-one] |  | 88% | 93% | 58%
6 | COc1ccc(OC)c(Nc2nc3c(s2)CC[C@@]2(C)C3=CC[C@@H]3[C@@H]2CC[C@]2(C)C(=O)CC[C@@H]32)c1 [IIa.16, (1S,2R,13R,14S,18S)-7-(2,5-dimethoxyanilino)-2,18-dimethyl-6-thia-8-azapentacyclo[11.7.0.02,10.05,9.014,18]icosa-5(9),7,10-trien-17-one] |  | 81% | 86% | 70%
7 | C[C@]12CCc3nc(-c4cc(Cl)cc(Cl)c4)sc3C1=CC[C@@H]1[C@@H]2CC[C@]2(C)C(=O)CC[C@@H]12 [II.25] | 89% |  |  | 
8 | C[C@]12CCc3nc(-c4ccc(O)cc4)sc3C1=CC[C@@H]1[C@@H]2CC[C@]2(C)C(=O)CC[C@@H]12 [II.4, (1S,2R,13R,14S,18S)-7-(4-hydroxy)-2,18-dimethyl-8-thia-6-azapentacyclo[11.7.0.02,10.05,9.014,18]icosa-5(9),7,10-trien-17-one] | 16% |  |  | 
9 | C[C@]12CCc3sc(Nc4ccc(C(=O)O)cc4)nc3C1=CC[C@@H]1[C@@H]2CC[C@]2(C)C(=O)CC[C@@H]12 [IIa.23, 4-[[(1S,2R,13R,14S,18S)-2,18-dimethyl-17-oxo-6-thia-8-azapentacyclo[11.7.0.02,10.05,9.014,18]icosa-5(9),7,10-trien-7-yl]amino]benzoic acid] |  | 43% | 78% | 71%
10 | CCCCNC1=NC2C3=CC[C@@H]4[C@H](CC[C@]5(C)C(=O)CC[C@@H]45)[C@@]3(C)CCC2S1 (stereo partly drawn) [IIa.31, (1S,2R,13R,14S,18S)-7-(butylamino)-2,18-dimethyl-6-thia-8-azapentacyclo[11.7.0.02,10.05,9.014,18]icosa-7,10-dien-17-one] |  | 69% | 93% | 74%
11 | CC(=O)Nc1nc2c(s1)C1=CC[C@@H]3[C@H](CC[C@]4(C)C(=O)CC[C@@H]34)[C@@]1(C)CC2 [IIb.1, N-[(1S,2R,13R,14S,18S)-2,18-dimethyl-17-oxo-8-thia-6-azapentacyclo[11.7.0.02,10.05,9.014,18]icosa-5(9),6,10-trien-7-yl]acetamide] |  | 5% | 16% | 31%
12 | CCNc1nc2c(s1)CC[C@@]1(C)C2=CC[C@@H]2[C@@H]1CC[C@]1(C)C(=O)CC[C@@H]21 [IIa.30, (1S,2R,13R,14S,18S)-7-(ethylamino)-2,18-dimethyl-6-thia-8-azapentacyclo[11.7.0.02,10.05,9.014,18]icosa-5(9),7,10-trien-17-one] |  | 26% | 67% | 4%
13 | COc1ccccc1Nc1nc2c(s1)CC[C@@]1(C)C2=CC[C@@H]2[C@@H]1CC[C@]1(C)C(=O)CC[C@@H]21 [IIa.15, (1S,2R,13R,14S,18S)-7-(2-methoxyanilino)-2,18-dimethyl-6-thia-8-azapentacyclo[11.7.0.02,10.05,9.014,18]icosa-5(9),7,10-trien-17-one] |  | 76% | 13% | 67%
14 | C[C@]12CCc3sc(Nc4ccccc4[N+](=O)[O-])nc3C1=CC[C@@H]1[C@@H]2CC[C@]2(C)C(=O)CC[C@@H]12 [IIa.13, (1S,2R,13R,14S,18S)-2,18-dimethyl-7-(2-nitroanilino)-6-thia-8-azapentacyclo[11.7.0.02,10.05,9.014,18]icosa-5(9),7,10-trien-17-one] |  | 36% | 6% | 58%
15 | C[C@]12CCc3nc(Nc4ccc(F)cc4)sc3C1=CC[C@@H]1[C@@H]2CC[C@]2(C)C(=O)CC[C@@H]12 [IIa.9, (1S,2R,13R,14S,18S)-7-(4-fluoroanilino)-2,18-dimethyl-8-thia-6-azapentacyclo[11.7.0.02,10.05,9.014,18]icosa-5(9),6,10-trien-17-one] |  | 58% | 90% | 61%
16 | COc1ccc(Cl)cc1Nc1nc2c(s1)CC[C@@]1(C)C2=CC[C@@H]2[C@@H]1CC[C@]1(C)C(=O)CC[C@@H]21 [IIa.20, (1S,2R,13R,14S,18S)-7-(5-chloro-2-methoxy-anilino)-2,18-dimethyl-6-thia-8-azapentacyclo[11.7.0.02,10.05,9.014,18]icosa-5(9),7,10-trien-17-one] |  | 70% | 95% | 83%
17 | COc1cccc(-c2nc3c(s2)C2=CC[C@@H]4[C@H](CC[C@]5(C)C(=O)CC[C@@H]45)[C@@]2(C)CC3)c1 [II.9, (1S,2R,13R,14S,18S)-7-(3-methoxyphenyl)-2,18-dimethol-8-thia-6-azapentacyclo[11.7.0.02,10.05,9.014,18]icosa-5(9),7,10-trien-17-one] | 13% |  |  | 
18 | CCOc1cccc(-c2nc3c(s2)C2=CC[C@@H]4[C@H](CC[C@]5(C)C(=O)CC[C@@H]45)[C@@]2(C)CC3)c1 [II.23] | 52% |  |  | 
19 | C=CCNc1nc2c(s1)CC[C@@]1(C)C2=CC[C@@H]2[C@@H]1CC[C@]1(C)C(=O)CC[C@@H]21 [IIa.3, (1S,2R,13R,14S,18S)-7-(allylamino)-2,18-dimethyl-6-thia-8-azapentacyclo[11.7.0.02,10.05,9.014,18]icosa-5(9),7,10-trien-17-one] |  | 57% | 65% | 68%

From US20250296953A1, “3,4-THIAZOLO-STEROIDS AND METHODS OF MAKING AND USING THE SAME” (Arkansas State University - Jonesboro, priority 2018, published 2025)
